Laboratory results published in patent US5914336A, “Method of controlling the serum solubility of orally administered torasemide and composition relating thereto” (Boehringer Mannheim GmbH, priority 1998, dated 1999).
Converted amounts (≈) assume the structure as drawn. “And” between values parts separate entries of the source, which are not always exact repeats. Identical values can stand only once. “Also recorded” adds a separate entry of the source. Like-named read-outs stand apart in the source and are kept apart here.

Key:
[1] = Water content after storing in relative humidity of 92% at 25° C.; format: physicochemical; details: 92% relative humidity, Mod. III value depending on particle size
Protocol: |Water content (%) after storing in relative humidity |of 92% at 25° C. on particle size

[2] = Dissolution testing of capsules containing 150 mg torasemide in citrate buffer (pH 4.5); format: physicochemical; details: for % dissolved: citrate buffer pH 4.5, 500 ml, 37° C., 150 rpm, 150 mg capsule; for 8 hr solubility, %: citrate, pH 4.5, 8 hr
Protocol: (§1) A blend was prepared of 75 wt. % of modification III and 25 wt. % of modification I, and a similar blend was prepared of 25 wt. % of modification III and 75 wt. % of modification I. These blends were incorporated into capsules containing 150 mg of total torasemide, and pure modification I and pure modification III 150 mg. capsules were also prepared. The capsules were subjected to dissolution testing in water, and in a citrate buffer (pH 4.5), at 37° C. under stirring.

[3] = Heats of fusion, transition and solution of crystal forms; format: physicochemical; details: for Heat of fusion ± 95%-c.i.: heating rate 5K min^-1; for Heat of solution: in I-butanol at 20° C.
[4] = earlier patents/knowledge, storage of pure active material or in tablets, cited from earlier work
[5] = Dissolution testing of capsules containing 150 mg torasemide in water; format: physicochemical; details: for % dissolved: 500 ml, 37° C., 150 rpm, 150 mg capsule
Protocol: as §1, with “FIG. 4 is a plot similar to that of FIG. 3, but in water rather than citrate buffer; FIG. 6 is a plot similar to that of FIG. 5, but in water. In this and the following examples, microfine torasemide of modification I and microfine torasemide of modification III were blended together. A” for “A”

[6] = Solubility at 20° C. at pH 4.90; format: physicochemical
Protocol: Solubility (mmol L^-1) at 20° C. at pH 4.90

[7] = Serum concentration of torasemide after oral administration to rats; format: in vivo, rat; details: male rats (FIG. 1)
Text: FIG. 1 is a plot of serum concentration levels in male rats of torasemide of modification I and modification III versus time after oral administration;
FIG. 2 is similar to FIG. 1, but reflects the serum concentrations in female rats;

[8] = Solubility of modification III versus modification I above pH 3; format: physicochemical; details: above pH 3 and especially at a pH of approximately 7.4
[9] = Stability / rearrangement of crystal modification; format: physicochemical
[10] = tested on: sodium-potassium-2 chloride transport mechanism in the ascending limb of the loop of Henle; details: loop diuretic; cited from earlier work
[11] = in vivo; cited from earlier work

Water content after storing in relative humidity of 92% at 25° C. [1] | % dissolved ([2]; 0 minutes) | % dissolved ([2]; 15 minutes) | % dissolved ([2]; 30 minutes) | % dissolved ([2]; 45 minutes) | % dissolved ([2]; 60 minutes) | % dissolved ([2]; 120 minutes) | % dissolved ([2]; 180 minutes) | % dissolved ([2]; 240 minutes) | % dissolved ([2]; 300 minutes) | % dissolved ([2]; 480 minutes) | Heat of fusion ± 95%-c.i. [3] | Heat of solution [3] | % dissolved ([5]; 0 minutes) | % dissolved ([5]; 15 minutes) | % dissolved ([5]; 30 minutes) | % dissolved ([5]; 45 minutes) | % dissolved ([5]; 60 minutes) | % dissolved ([5]; 120 minutes) | % dissolved ([5]; 180 minutes) | SMILES | also measured
0.2% | 0% | 13,4% | 30,3% | 38,3% | 43,5% | 54,9% | 61% | 63,2% | 63,1% | 63,9% | 37.2 ± 1.9 kJ/mol | 36.1 kJ/mol | 0% | 30,6% | 51,3% | 58,5% | 61,6% | 64,9% | 65,9% | Cc1cccc(Nc2ccncc2S(=O)(=O)NC(=O)NC(C)C)c1 [Mod. I, 1-isopropyl-3-[(4-m-toluidino-3pyridyl)-sulphonyl)-urea] | 8 hr solubility, % ([2]; listed as Modification I): 63.9%; stability / rearrangement of modification ([4]; listed as modification I): stable in tablets and did not rearrange again back into modification II; % dissolved ([5]; 240 minutes): 66,3%; % dissolved ([5]; 300 minutes): 66,8%; 8 hr solubility, % ([5]; listed as Modification I): 67.3%; % dissolved ([5]; 480 minutes): 67,3%; Solubility [6]: 340 µM (≈ 118 µg/mL)
1.2% | 0% | 63,3% | 91% | 97,4% | 99,5% | 101% | 101,5% | 101,6% | 101,8% | 102,5% | 29.9 ± 0.9 kJ/mol | 29.8 kJ/mol | 0% | 62,8% | 96,6% | 100,4% | 101,3% | 102,1% | 102,5% | Cc1cccc(Nc2ccncc2S(=O)(=O)NC(=O)NC(C)C)c1 [Mod. III, 1-isopropyl-3-[(4-m-toluidino-3pyridyl)-sulphonyl)-urea] | serum concentration relative to modification I ([7]; 20 minutes after oral administration): more than twice the serum concentration as modification I; serum concentration relative to modification I ([7]; 40 minutes after oral administration): almost twice the serum concentration as modification I; 8 hr solubility, % ([2]; listed as Modification III): 102.5%; solubility versus modification I [8]: significantly greater solubility than modification I; stability of modification [9]: stable; Heat of transition ± 95%-c.i. ([3]; at about 159° C., the difference of the heats of fusion): -8.2 ± 2.1 kJ/mol; % dissolved ([5]; 240 minutes): 102,8%; % dissolved ([5]; 300 minutes): 102,2% and 103,2%; 8 hr solubility, % ([5]; listed as Modification III): 103.3%; % dissolved ([5]; 480 minutes): 103,3%; Solubility [6]: 930 µM (≈ 324 µg/mL)
 |  |  |  |  |  |  |  |  |  |  |  |  |  |  |  |  |  |  |  | Cc1cccc(Nc2ccncc2S(=O)(=O)NC(=O)NC(C)C)c1 [Modification II, 1-isopropyl-3-[(4-m-toluidino-3pyridyl)-sulphonyl)-urea] | stability / rearrangement of modification [4]: relatively unstable; also recorded: in the case of storage of the pure active material, does not change; also recorded: rearranges more or less quickly into modification I
 |  |  |  |  |  |  |  |  |  |  |  |  |  |  |  |  |  |  |  | Cc1cccc(Nc2ccncc2S(=O)(=O)NC(=O)NC(C)C)c1 [Torasemide, 1-isopropyl-3-[(4-m-toluidino-3pyridyl)-sulphonyl)-urea] | mechanism of action [10]: blocks the sodium-potassium-2 chloride transport mechanism in the ascending limb of the loop of Henle; diuresis compared with other standard loop diuretics [11]: less intense initial diuresis and a sustained duration of action
